Earlier results as cited in patent US20050287214A1, “Squeeze controlled oral dosage form” (priority 2004, published 2005).

Conditions: solubility of the active agent as stated in the formulation tables; no method given

CNC(=C[N+](=O)[O-])NCCSCc1ccc(CN(C)C)o1 [Ranitidine]
solubility: Ranitidine (solubility = 880 mg/ml)
